Reference: ChEMBL document CHEMBL5236567, “Discovery of a selective c-MET inhibitor with a novel binding mode” (Bioorg Med Chem Lett, 2022)

What was measured:
[1] = target: T1, Hepatocyte growth factor receptor (Homo sapiens, UniProt P08581); experiment: Inhibition of his-tagged wild type c-MET (1050 to 1346 residues) (unknown origin) by ADP-glo assay
[2] = target: T1, Hepatocyte growth factor receptor; experiment: Binding affinity to his-tagged wild type c-MET (1050 to 1346 residues) (unknown origin) by surface plasmon resonance analysis
[3] = target: T2, Hepatocyte growth factor receptor (Homo sapiens, UniProt P08581, D1228V); experiment: Inhibition of his-tagged c-MET D1228V mutant (1050 to 1346 residues) (unknown origin) in human NCI-H1993 cells by HTRF analysis; type: cell-based
[4] = target: T2, Hepatocyte growth factor receptor; experiment: Inhibition of his-tagged c-MET D1228V mutant (1050 to 1346 residues) (unknown origin) by ADP-glo assay
[5] = target: T2, Hepatocyte growth factor receptor; experiment: Binding affinity to his-tagged c-MET D1228V mutant (1050 to 1346 residues) (unknown origin) assessed as dissociation constant by surface plasmon resonance analysis
[6] = target: T1, Hepatocyte growth factor receptor; experiment: Inhibition of his-tagged wild type c-MET (1050 to 1346 residues) (unknown origin) in human NCI-H1993 cells by HTRF analysis; type: cell-based
[7] = target: TRAF2 and NCK-interacting protein kinase (Homo sapiens) (UniProt Q9UKE5); experiment: Inhibition of TNIK (unknown origin) at 10 uM relative to control
[8] = target: Calcium/calmodulin-dependent protein kinase type 1 (Homo sapiens) (UniProt Q14012); experiment: Inhibition of CAMK1 (unknown origin) at 10 uM relative to control
[9] = target: T1, Hepatocyte growth factor receptor; experiment: Inhibition of wild type c-MET (unknown origin ) at 10 uM relative to control
[10] = target: T1, Hepatocyte growth factor receptor; experiment: Binding affinity to his-tagged c-MET (1050 to 1346 residues) (unknown origin) assessed as binding constant (Koff) by surface plasmon resonance analysis
[11] = target: T1, Hepatocyte growth factor receptor; experiment: Binding affinity to his-tagged c-MET (1050 to 1346 residues) (unknown origin) assessed as binding constant (Kon) by surface plasmon resonance analysis

Sequence of TRAF2 and NCK-interacting protein kinase (Homo sapiens) (Q9UKE5 whole entry, looked up): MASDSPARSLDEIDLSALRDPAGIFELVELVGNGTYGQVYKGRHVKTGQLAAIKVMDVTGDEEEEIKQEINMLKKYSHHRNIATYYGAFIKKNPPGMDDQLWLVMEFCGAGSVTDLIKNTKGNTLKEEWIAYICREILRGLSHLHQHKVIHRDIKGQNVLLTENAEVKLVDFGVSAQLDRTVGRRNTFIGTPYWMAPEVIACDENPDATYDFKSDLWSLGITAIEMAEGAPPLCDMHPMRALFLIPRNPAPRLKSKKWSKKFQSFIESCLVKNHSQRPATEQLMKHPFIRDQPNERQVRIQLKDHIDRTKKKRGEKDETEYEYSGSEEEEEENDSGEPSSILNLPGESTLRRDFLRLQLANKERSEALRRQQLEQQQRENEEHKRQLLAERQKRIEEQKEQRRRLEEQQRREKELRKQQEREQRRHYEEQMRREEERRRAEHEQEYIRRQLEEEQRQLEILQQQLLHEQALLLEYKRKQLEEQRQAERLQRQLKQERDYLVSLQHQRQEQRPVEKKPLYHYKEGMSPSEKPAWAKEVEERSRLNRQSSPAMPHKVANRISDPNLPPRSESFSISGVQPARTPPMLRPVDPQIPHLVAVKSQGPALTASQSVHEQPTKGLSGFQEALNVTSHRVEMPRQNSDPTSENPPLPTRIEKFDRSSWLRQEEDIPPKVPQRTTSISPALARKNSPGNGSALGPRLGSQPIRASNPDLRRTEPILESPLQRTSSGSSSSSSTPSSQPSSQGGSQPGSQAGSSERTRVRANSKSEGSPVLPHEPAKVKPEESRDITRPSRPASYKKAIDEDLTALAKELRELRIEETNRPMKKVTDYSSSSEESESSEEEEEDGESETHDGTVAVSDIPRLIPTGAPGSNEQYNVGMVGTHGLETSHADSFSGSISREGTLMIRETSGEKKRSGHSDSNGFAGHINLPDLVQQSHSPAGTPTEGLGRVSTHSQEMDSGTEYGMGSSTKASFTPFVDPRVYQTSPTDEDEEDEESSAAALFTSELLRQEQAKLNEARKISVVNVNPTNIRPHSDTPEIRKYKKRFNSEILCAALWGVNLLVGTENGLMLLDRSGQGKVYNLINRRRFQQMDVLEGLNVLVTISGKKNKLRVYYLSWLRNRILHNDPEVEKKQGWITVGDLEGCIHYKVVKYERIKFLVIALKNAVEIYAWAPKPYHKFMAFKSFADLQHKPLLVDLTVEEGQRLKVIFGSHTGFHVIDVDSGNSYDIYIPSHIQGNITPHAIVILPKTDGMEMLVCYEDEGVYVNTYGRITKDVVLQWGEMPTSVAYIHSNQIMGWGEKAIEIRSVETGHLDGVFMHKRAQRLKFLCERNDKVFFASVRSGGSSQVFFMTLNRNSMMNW
Sequence of Calcium/calmodulin-dependent protein kinase type 1 (Homo sapiens) (Q14012 whole entry, looked up): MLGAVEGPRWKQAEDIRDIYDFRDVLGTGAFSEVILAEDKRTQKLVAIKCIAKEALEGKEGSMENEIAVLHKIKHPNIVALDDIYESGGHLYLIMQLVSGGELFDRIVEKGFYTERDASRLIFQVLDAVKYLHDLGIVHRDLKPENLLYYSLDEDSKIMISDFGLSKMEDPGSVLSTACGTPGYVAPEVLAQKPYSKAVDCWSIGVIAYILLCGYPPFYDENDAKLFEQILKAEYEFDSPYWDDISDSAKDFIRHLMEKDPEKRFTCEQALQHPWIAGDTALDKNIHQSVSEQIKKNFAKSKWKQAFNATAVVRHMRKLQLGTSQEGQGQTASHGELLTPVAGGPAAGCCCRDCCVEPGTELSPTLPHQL

Row | IC50 [1] [µM] | Kd [2] [µM] | IC50 ([3]; nci-h1993) | IC50 [4] [µM] | Kd [5] [µM] | IC50 ([6]; nci-h1993) | inhibition [7] [%] | inhibition [8] [%] | IC50 ([3]; read-out: IC50) [µM] | IC50 ([6]; read-out: IC50) [µM] | inhibition [9] [%] | koff [10] [s⁻¹] | K [11] | Compound
1 | 4.94 | 2.8 | Not Active | 11 | 5.3 | Not Active | – | – | – | – | – | – | – | Cc1ccc(-c2ccc3c(C)n[nH]c3c2)c2c1[C@@H](N(C)C(=O)c1ncccc1C(F)F)CCC2
2 | 0.9 | 7.2 | – | 0.09 | 0.65 | – | > 70 | > 70 | 12 | > 30 | > 70 | – | – | Cc1ccc(-c2ccc3c(C)n[nH]c3c2)c2c1[C@H](N(C)C(=O)c1ncccc1C(F)F)CCC2
3 | – | > 20 | – | – | 1.4 | – | – | – | – | – | – | 0.0053 | 3.7 10^3/M/s | Cc1ccc(-c2ccc3c(C)n[nH]c3c2)c2c1C(N(C)C(=O)c1ncccc1C(F)F)CCC2 (racemic)
